Laboratory results published in ChEMBL document CHEMBL3046573, “Baseline sensitivity of Pestalotiopsis microspora, which causes black spot disease on Chinese hickory (Carya cathayensis), to pyraclostrobin” (Crop Prot, 2012).
In brackets after ≈: the same amount, converted by molar mass.

Assays:
[1] = system: Pestalotiopsis microspora; test: Fungicidal activity against pyraclostrobin-resistant mutant Pestalotiopsis microspora isolate LA1R1 assessed as conidium germination inhibition at 25 degC; format: functional, organism-based
[2] = system: Pestalotiopsis microspora; test: Fungicidal activity against wild type Pestalotiopsis microspora isolate CA-8 assessed as conidium germination inhibition at 25 degC; format: functional, organism-based
[3] = system: Pestalotiopsis microspora; test: Resistance factor, ratio of EC50 for pyraclostrobin-resistant mutant Pestalotiopsis microspora isolate LA1R2 to EC50 for wild type Pestalotiopsis microspora isolate LA-1; format: functional
[4] = system: Pestalotiopsis microspora; test: Resistance factor, ratio of EC50 for pyraclostrobin-resistant mutant Pestalotiopsis microspora isolate LA1R1 to EC50 for wild type Pestalotiopsis microspora isolate LA-1; format: functional
[5] = system: Pestalotiopsis microspora; test: Fungicidal activity against pyraclostrobin-resistant mutant Pestalotiopsis microspora isolate CA8R2 assessed as conidium germination inhibition at 25 degC; format: functional, organism-based
[6] = system: Pestalotiopsis microspora; test: Fungicidal activity against pyraclostrobin-resistant mutant Pestalotiopsis microspora isolate LA1R2 assessed as conidium germination inhibition at 25 degC; format: functional, organism-based
[7] = system: Pestalotiopsis microspora; test: Fungicidal activity against pyraclostrobin-resistant mutant Pestalotiopsis microspora isolate CA8R3 assessed as conidium germination inhibition at 25 degC; format: functional, organism-based
[8] = system: Pestalotiopsis microspora; test: Fungicidal activity against Pestalotiopsis microspora infected Chinese hickory orchards assessed as mycelial growth inhibition at 25 degC after 5 days; format: functional, organism-based; settings: 120 h
[9] = system: Pestalotiopsis microspora; test: Fungicidal activity against pyraclostrobin-resistant mutant Pestalotiopsis microspora isolate CA8R1 assessed as conidium germination inhibition at 25 degC; format: functional, organism-based
[10] = system: Pestalotiopsis microspora; test: Fungicidal activity against wild type Pestalotiopsis microspora isolate LA-1 assessed as conidium germination inhibition at 25 degC; format: functional, organism-based
[11] = system: Pestalotiopsis microspora; test: Fungicidal activity against Pestalotiopsis microspora infected in Chinese hickory orchards assessed as conidium germination inhibition at 25 degC after 24 hr; format: functional, organism-based
[12] = system: Pestalotiopsis microspora; test: Resistance factor, ratio of EC50 for pyraclostrobin-resistant mutant Pestalotiopsis microspora isolate CA8R1 to EC50 for wild type Pestalotiopsis microspora isolate CA-8; format: functional
[13] = system: Pestalotiopsis microspora; test: Resistance factor, ratio of EC50 for pyraclostrobin-resistant mutant Pestalotiopsis microspora isolate CA8R3 to EC50 for wild type Pestalotiopsis microspora isolate CA-8; format: functional
[14] = system: Pestalotiopsis microspora; test: Resistance factor, ratio of EC50 for pyraclostrobin-resistant mutant Pestalotiopsis microspora isolate CA8R2 to EC50 for wild type Pestalotiopsis microspora isolate CA-8; format: functional
[15] = system: Pestalotiopsis microspora; test: Fungicidal activity against Pestalotiopsis microspora isolates infected Chinese hickory orchards by conidium germination test; format: functional, organism-based

In the case of `CO/C=C(/C(=O)OC)c1ccccc1Oc1cc(Oc2ccccc2C#N)ncn1` [AZOXYSTROBIN], the EC50 [1] is reported as 4.78 µg/mL (≈ 11.8 µM), the EC50 [2] is reported as 0.76 µg/mL (≈ 1.88 µM) and the “Ratio EC50” value [3] is reported as 38.16. The “Ratio EC50” value [4] was 14.94, the EC50 [5] was 21.9 µg/mL (≈ 54.3 µM) and the EC50 [6] was 12.2 µg/mL (≈ 30.3 µM). The EC50 [7] was 15.4 µg/mL (≈ 38.2 µM), the EC50 [8] was 2.61 µg/mL (≈ 6.47 µM) and the EC50 [9] was 17.3 µg/mL (≈ 42.9 µM). The EC50 [10] was 0.32 µg/mL (≈ 0.793 µM), the EC50 [11] was 1.36 µg/mL (≈ 3.37 µM) and the “Ratio EC50” value [12] was 22.75. For the same compound, the “Ratio EC50” value [13] was 20.25 and the “Ratio EC50” value [14] was 28.82.
For `O=C(Nc1ccccc1-c1ccc(Cl)cc1)c1cccnc1Cl` [BOSCALID], the EC50 [1] was 19.7 µg/mL (≈ 57.4 µM), the EC50 [2] was 18.6 µg/mL (≈ 54.2 µM) and the “Ratio EC50” value [3] was 1.02. For the same compound, the “Ratio EC50” value [4] was 0.98, the EC50 [5] was 17.7 µg/mL (≈ 51.6 µM) and the EC50 [6] was 20.6 µg/mL (≈ 60 µM). The EC50 [7] was 19 µg/mL (≈ 55.4 µM), the EC50 [8] was 167 µg/mL (≈ 486 µM) and the EC50 [9] was 18.1 µg/mL (≈ 52.7 µM). The EC50 [10] was 20.1 µg/mL (≈ 58.6 µM), the EC50 [11] was 23.9 µg/mL (≈ 69.7 µM) and the “Ratio EC50” value [12] was 0.97. For the same compound, the “Ratio EC50” value [13] was 1.05 and the “Ratio EC50” value [14] was 0.95.
With `N#Cc1c(Cl)c(Cl)c(Cl)c(C#N)c1Cl` [CHLOROTHALONIL] the EC50 [8] was 2.08 µg/mL (≈ 7.82 µM) and the EC50 [11] was 3.05 µg/mL (≈ 11.5 µM).
`CC1COC(Cn2cncn2)(c2ccc(Oc3ccc(Cl)cc3)cc2Cl)O1` (configuration not stated) [DIFENOCONAZOLE] was tested, and the EC50 [8] was 4.27 µg/mL (≈ 10.5 µM) and the EC50 [11] was 28.5 µg/mL (≈ 70.1 µM).
For `CC(=O)O.CCCCCCCCCCCCNC(=N)N` [DODINE], the EC50 [8] was 27 µg/mL and the EC50 [11] was 32.7 µg/mL.
`CC(C)NC(=O)N1CC(=O)N(c2cc(Cl)cc(Cl)c2)C1=O` [IPRODIONE] was tested, and the EC50 [8] was 2.03 µg/mL (≈ 6.15 µM) and the EC50 [11] was 9.87 µg/mL (≈ 29.9 µM).
`CC12CC1(C)C(=O)N(c1cc(Cl)cc(Cl)c1)C2=O` (configuration not stated) [PROCYMIDONE] was tested, and the EC50 [8] was 1.68 µg/mL (≈ 5.91 µM) and the EC50 [11] was 12 µg/mL (≈ 42.3 µM).
For `COC(=O)N(OC)c1ccccc1COc1ccn(-c2ccc(Cl)cc2)n1` [PYRACLOSTROBIN], the EC50 [1] was 5.67 µg/mL (≈ 14.6 µM), the EC50 [15] was 0.13 µg/mL (≈ 0.335 µM) and the EC50 [2] was 0.04 µg/mL (≈ 0.103 µM). The “Ratio EC50” value [3] was 406, the “Ratio EC50” value [4] was 179 and the EC50 [5] was 9.59 µg/mL (≈ 24.7 µM). It also gave an EC50 [6] of 12.2 µg/mL (≈ 31.4 µM), an EC50 [7] of 4.25 µg/mL (≈ 11 µM) and an EC50 [8] of 0.92 µg/mL (≈ 2.37 µM). The EC50 [9] was 8.17 µg/mL (≈ 21.1 µM), the EC50 [10] was 0.03 µg/mL (≈ 0.0774 µM) and the EC50 [11] was 0.08 µg/mL (≈ 0.206 µM). For the same compound, the “Ratio EC50” value [12] was 204, the “Ratio EC50” value [13] was 106 and the “Ratio EC50” value [14] was 240.
In the case of `CC(C)(C)C(O)(CCc1ccc(Cl)cc1)Cn1cncn1` (configuration not stated) [TEBUCONAZOLE], the EC50 [8] is reported as 1.42 µg/mL (≈ 4.61 µM) and the EC50 [11] is reported as 20.1 µg/mL (≈ 65.3 µM).
`COC(=O)NC(=S)Nc1ccccc1NC(=S)NC(=O)OC` [THIOPHANATE METHYL] gave an EC50 [8] of 1.45 µg/mL (≈ 4.23 µM) and an EC50 [11] of 25.7 µg/mL (≈ 75 µM).
